Usually mortality stands for the percentage killed.

In one test the test system is Laodelphax striatellus. Briefly: Insecticidal test on Laodelphax striatellus (rice seedling dip). Particulars: 192 h, rice seedlings dipped 30 seconds, ten 3rd-instar larvae, 8 days after inoculation, read-out: insecticidal efficacy (corrected mortality rate). It is filed as in vivo. An excerpt: Insecticidal Test on Laodelphax striatellus
The condensed heterocyclic compounds represented by the general formula (1) of the present invention or salts thereof were separately dispersed in water and diluted to 500 ppm. Rice plant seedlings (variety: Nihonbare) were dipped in the agrochemical dispersions for 30 seconds. After air-dried, each seedling was put into a separate glass test tube and inoculated with ten 3rd-instar larvae of Laodelphax striatellus, and then the glass test tubes were capped with cotton plugs. At 8 days after the inoculation, the numbers of surviving larvae and dead larvae were counted, the corrected mortality rate was calculated according to the formula shown below, and the insecticidal efficacy was evaluated according to the criteria shown below. Corrected mortality rate (%)=100×(Survival rate in a non-treatment plot−Survival rate in a treatment plot)/Survival rate in a non-treatment plot [Math. 2] Corrected Mortality Rate A: the corrected mortality rate is 100%. B: the corrected mortality rate is 90 to 99%. C: the corrected mortality rate is 80 to 89%. D: the corrected mortality rate is 50 to 79%.

A further test has as its system Plutella xylostella. Briefly: Insecticidal test on Plutella xylostella (dip of Chinese cabbage seedlings with laid eggs). It is filed as in vivo. The note with it: 144 h, seedlings with laid eggs dipped about 30 seconds, 25° C., 6 days after dip treatment, criteria of Test Example 2, read-out: insecticidal efficacy (corrected mortality rate, hatched larvae). The text has this: Insecticidal Test on Plutella xylostella
Adults of Plutella xylostella were released onto Chinese cabbage seedlings and allowed to lay eggs thereon. At 2 days after the release of the adults, the Chinese cabbage seedlings with laid eggs were dipped for about 30 seconds in agrochemical dispersions diluted to 500 ppm, each of which contained a different condensed heterocyclic compound represented by the general formula (1) of the present invention as an active ingredient. After air-dried, the seedlings were kept in a thermostatic chamber at 25° C. At 6 days after the dip treatment, the number of hatched larvae per plot was counted, the mortality rate was calculated according to the formula shown below, and the insecticidal efficacy was evaluated according to the criteria of Test Example 2. This test was conducted in triplicate using 10 adults of Plutella xylostella per plot. Corrected mortality rate (%)=100×(Number of hatched larvae in a non-treatment plot−Number of hatched larvae in a treatment plot)/Number of hatched larvae in a non-treatment plot [Math. 3]

As to `CCS(=O)(=O)c1cc(C(F)(F)F)cnc1-c1[nH]c2cc(C(F)(F)F)cnc2c1F` [Compound 1-75, 2-(3-ethylsulfonyl-5-trifluoromethylpyridin-2-yl)-3-fluoro-6-trifluoromethyl-1H-pyrrolo[3,2-b]pyridine], the mortality at 500 ppm with Laodelphax striatellus and in the test on Plutella xylostella was 100% each time.
Regarding `CCS(=O)(=O)c1cc(C(F)(F)F)cnc1-c1[nH]c2cc(C(F)(F)F)cnc2c1Cl` [Compound 1-76, 2-(3-ethylsulfonyl-5-trifluoromethylpyridin-2-yl)-3-chloro-6-trifluoromethyl-1H-pyrrolo[3,2-b]pyridine], the mortality at 500 ppm with Laodelphax striatellus and in the test on Plutella xylostella was 100% in each case.
In the case of `CCS(=O)(=O)c1cc(C(F)(F)F)cnc1-c1c(Cl)c2ncc(C(F)(F)F)cc2n1C(C)=O` [Compound 3-3, 1-acetyl-2-(3-ethylsulfonyl-5-trifluoromethylpyridin-2-yl)-3-chloro-6-trifluoromethyl-1H-pyrrolo[3,2-b]pyridine], the mortality at 500 ppm in the test on Laodelphax striatellus and with Plutella xylostella was 100% each time.
For the compound `CCS(=O)(=O)c1cc(C(F)(F)F)cnc1-c1[nH]c2cc(C(F)(F)F)cnc2c1Br` [Compound 1-77, 2-(3-ethylsulfonyl-5-trifluoromethylpyridin-2-yl)-3-bromo-6-trifluoromethyl-1H-pyrrolo[3,2-b]pyridine], the mortality at 500 ppm with Laodelphax striatellus and in the test with Plutella xylostella was 100% each time.

Values taken from patent publication US10779537B2, “1H-pyrrolopyridine compound, N-oxide thereof or salt thereof, agricultural and horticultural insecticide comprising the compound, and method for using the insecticide” (Nihon Nohyaku Co., Ltd., priority 2016, dated 2020).
